Four compounds from PubChem BioAssay AID2060886 (Molecular Pharmacology Branch, DTP, NCI, 2025) can be followed below.

The structures appear in SMILES notation. Where “and” joins values, the source holds several entries; their conditions need not be identical. Equal values may be shown once.

This experiment deals with 653999-131-R-J2-PDC complex spheroids, growth inhibition. In words: Anticancer human tumor 653999-131-R-J2-PDC patient-derived lung adenocarcinoma cell line growth inhibition [RAS]. The settings on record: for viability, T/C: stronger effect = lower value. In outline: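 Agents were tested in combination matrices in half-log decrements from a top concentration at or near clinical Cmax (10 microM if undetermined). Targets were multi-cell spheroids of tumour lines plus HUVEC and MSC stromal cells.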
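Also: spheroids exposed to the agents for seven days before the readout.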

What is called IC50 is the point on the concentration scale where inhibition reaches its midpoint. By viability, T/C is commonly meant the ratio of treated to control. As for `CCc1c2c(nc3ccc(O)cc13)-c1cc3c(c(=O)n1C2)COC(=O)[C@]3(O)CC` + C=CC(=O)N1CCN(c2nc(OCC3CCCN3C)nc3c(F)c(-c4nc(N)cc(C)c4C(F)(F)F)c(Cl)cc23)C(C)C1, the 50% inhibitory concentration (IC50) by setting is: (curve of first compound, second compound 0.00316 µM) 8.57 nM; (curve of first compound, second compound 0.01 µM) 6.53 nM; (curve of first compound, second compound 0.0316 µM) 6.41 nM; (curve of first compound, second compound 0.1 µM) 5.92 nM; (curve of first compound, second compound 0.316 µM) 5.94 nM; (curve of first compound, second compound 1 µM) 8.46 nM. Moreover, the viability, T/C is, setting by setting: (second compound 0.00316 µM, first compound 0.000949 µM) 80.2%; (second compound 0.00316 µM, first compound 0.003 µM) 58.5%; (second compound 0.00316 µM, first compound 0.00949 µM) 53.5%; (second compound 0.00316 µM, first compound 0.03 µM) 34.3%; (second compound 0.00316 µM, first compound 0.0949 µM) 20.8%; (second compound 0.00316 µM, first compound 0.3 µM) 10.2%. The viability, T/C (second compound 0.01 µM, first compound 0.000949 µM) is 88.7%; the viability, T/C (second compound 0.01 µM, first compound 0.003 µM) is 61.9%; the viability, T/C (second compound 0.01 µM, first compound 0.00949 µM) is 44.2%; the viability, T/C (second compound 0.01 µM, first compound 0.03 µM) was 29%; the viability, T/C (second compound 0.01 µM, first compound 0.0949 µM) was 21.5%; the viability, T/C (second compound 0.01 µM, first compound 0.3 µM) was 11.3%. Besides, the viability, T/C (second compound 0.0316 µM, first compound 0.000949 µM) was 90.9%; the viability, T/C (second compound 0.0316 µM, first compound 0.003 µM) was 60.8%; the viability, T/C (second compound 0.0316 µM, first compound 0.00949 µM) was 43.8%; the viability, T/C (second compound 0.0316 µM, first compound 0.03 µM) was 30.4%; the viability, T/C (second compound 0.0316 µM, first compound 0.0949 µM) was 20.6%; the viability, T/C (second compound 0.0316 µM, first compound 0.3 µM) was 11.6%. Also, the viability, T/C (second compound 0.1 µM, first compound 0.000949 µM) was 85.8%; the viability, T/C (second compound 0.1 µM, first compound 0.003 µM) was 58.3%; the viability, T/C (second compound 0.1 µM, first compound 0.00949 µM) was 43.1%; the viability, T/C (second compound 0.1 µM, first compound 0.03 µM) is 30.2%; the viability, T/C (second compound 0.1 µM, first compound 0.0949 µM) was 23.7%; the viability, T/C (second compound 0.1 µM, first compound 0.3 µM) was 12.1%. The viability, T/C reads like this: (second compound 0.316 µM, first compound 0.000949 µM) 83.9%; (second compound 0.316 µM, first compound 0.003 µM) 59.7%; (second compound 0.316 µM, first compound 0.00949 µM) 42.5%; (second compound 0.316 µM, first compound 0.03 µM) 29.5%; (second compound 0.316 µM, first compound 0.0949 µM) 23%; (second compound 0.316 µM, first compound 0.3 µM) 11.9%. Moreover, the viability, T/C by setting is: (second compound 1 µM, first compound 0.000949 µM) 84.5%; (second compound 1 µM, first compound 0.003 µM) 64.2%; (second compound 1 µM, first compound 0.00949 µM) 50.7%; (second compound 1 µM, first compound 0.03 µM) 31.2%; (second compound 1 µM, first compound 0.0949 µM) 25.3%; (second compound 1 µM, first compound 0.3 µM) 14.5%.
For `O=C(c1ccc(F)c(F)c1Nc1ccc(I)cc1F)N1CC(O)([C@@H]2CCCCN2)C1`, the viability, T/C by setting is: (compound 0.01 µM) 77.5% [middle of 4 runs]; (compound 0.1 µM) 51.2% [middle of 4 runs]; (compound 0.316 µM) 28.2% [middle of 4 runs]; (compound 1 µM) 11.1% [middle of 4 runs]. Besides, the IC50 (curve of compound) was 112 nM [middle of 4 runs].
With `CC(C)n1nc(-c2ccc3oc(N)nc3c2)c2c(N)ncnc21`, the viability, T/C by setting is: (compound 0.000316 µM) 87.2% and 81.4% and 79.2%; (compound 0.001 µM) 89.2% and 93.6% and 71.3%; (compound 0.00316 µM) 87.7% and 76.8% and 77.8%; (compound 0.01 µM) 61.8% and 63.5% and 57.9%; (compound 0.0316 µM) 43.1% and 40.6% and 35.8%; (compound 0.1 µM) 34.1% and 25.4% and 27.2%. Also, the IC50 (curve of compound) was 19.5 nM and 19.4 nM and 15.4 nM.
In the case of `CC(=O)OC12COC1CC(O)C1(C)C(=O)C(O)C3=C(C)C(OC(=O)C(O)C(NC(=O)OC(C)(C)C)c4ccccc4)CC(O)(C(OC(=O)c4ccccc4)C21)C3(C)C` (stereo unspecified) + CCn1c(-c2cc(N3CCN(C)CC3)cnc2C(C)OC)c2c3cc(ccc31)-c1csc(n1)CC(NC(=O)C1CC1C)C(=O)N1CCCC(N1)C(=O)OCC(C)(C)C2, the IC50 reads like this: (curve of first compound, second compound 0.000949 µM) below 31.6 nM; (curve of first compound, second compound 0.003 µM) below 31.6 nM; (curve of first compound, second compound 0.00949 µM) below 31.6 nM; (curve of first compound, second compound 0.03 µM) below 31.6 nM; (curve of first compound, second compound 0.0949 µM) below 31.6 nM; (curve of first compound, second compound 0.3 µM) below 31.6 nM. Further, the viability, T/C was 38.1% (second compound 0.000949 µM, first compound 0.0316 µM); 39.4% (second compound 0.000949 µM, first compound 0.1 µM); 42.8% (second compound 0.000949 µM, first compound 0.316 µM); 43.5% (second compound 0.000949 µM, first compound 1 µM); 48.8% (second compound 0.000949 µM, first compound 3.16 µM); 51.6% (second compound 0.000949 µM, first compound 10 µM). Moreover, the viability, T/C (second compound 0.003 µM, first compound 0.0316 µM) was 29.9%; the viability, T/C (second compound 0.003 µM, first compound 0.1 µM) was 27%; the viability, T/C (second compound 0.003 µM, first compound 0.316 µM) was 27.6%; the viability, T/C (second compound 0.003 µM, first compound 1 µM) was 35.4%; the viability, T/C (second compound 0.003 µM, first compound 3.16 µM) is 30.9%; the viability, T/C (second compound 0.003 µM, first compound 10 µM) is 31.7%. Also, the viability, T/C is, setting by setting: (second compound 0.00949 µM, first compound 0.0316 µM) 14.9%; (second compound 0.00949 µM, first compound 0.1 µM) 21%; (second compound 0.00949 µM, first compound 0.316 µM) 20.7%; (second compound 0.00949 µM, first compound 1 µM) 21.9%; (second compound 0.00949 µM, first compound 3.16 µM) 21.7%; (second compound 0.00949 µM, first compound 10 µM) 19.1%. Moreover, the viability, T/C reads like this: (second compound 0.03 µM, first compound 0.0316 µM) 13.3%; (second compound 0.03 µM, first compound 0.1 µM) 13.2%; (second compound 0.03 µM, first compound 0.316 µM) 12.8%; (second compound 0.03 µM, first compound 1 µM) 13.2%; (second compound 0.03 µM, first compound 3.16 µM) 14%; (second compound 0.03 µM, first compound 10 µM) 13.1%. For the same compound, the viability, T/C reads like this: (second compound 0.0949 µM, first compound 0.0316 µM) 11.5%; (second compound 0.0949 µM, first compound 0.1 µM) 12.1%; (second compound 0.0949 µM, first compound 0.316 µM) 13.8%; (second compound 0.0949 µM, first compound 1 µM) 10.6%; (second compound 0.0949 µM, first compound 3.16 µM) 12.6%; (second compound 0.0949 µM, first compound 10 µM) 12.2%. Also, the viability, T/C was 8.97% (second compound 0.3 µM, first compound 0.0316 µM); 10.1% (second compound 0.3 µM, first compound 0.1 µM); 12% (second compound 0.3 µM, first compound 0.316 µM); 13.4% (second compound 0.3 µM, first compound 1 µM); 12.2% (second compound 0.3 µM, first compound 3.16 µM); 12.3% (second compound 0.3 µM, first compound 10 µM).
